Holding throughout (assay type): cell-based
Test [1] has as its target T1, human glucagon receptor (GCGR) (Homo sapiens, UniProt P47871).
T1 construct: expressed in transfected cells
As to the kind of experiment: cAMP assay, human GCGR cells. The method, boiled down:
(§1)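 Peptide-stimulated cAMP measured by two-step HTRF after a 30 min room-temperature incubation with receptor-expressing cells (hGLP-1R, hGIPR at 1×10^5 cells/ml; hGCGR at 2×10^5 cells/ml). Duplicate dilutions; EC50 from 4-parameter logistic fit of % Delta F.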
(Changes in cAMP serve as a functional read-out for many G protein-coupled receptors.)

For test [2], the target named is T2, human GLP-1 receptor (GLP-1R) (Homo sapiens, UniProt P43220).
T2 construct: expressed in transfected cells
The test can be described thus: cAMP assay, human GLP-1R cells. An outline of the steps:
as §1

Test [3] deals with T3, GLP-1R (INS1e assay) (Rattus norvegicus, UniProt P32301).
T3 construct: endogenous in cells; host or cells: INS-1E cells
T3 sequence (P32301 22-463): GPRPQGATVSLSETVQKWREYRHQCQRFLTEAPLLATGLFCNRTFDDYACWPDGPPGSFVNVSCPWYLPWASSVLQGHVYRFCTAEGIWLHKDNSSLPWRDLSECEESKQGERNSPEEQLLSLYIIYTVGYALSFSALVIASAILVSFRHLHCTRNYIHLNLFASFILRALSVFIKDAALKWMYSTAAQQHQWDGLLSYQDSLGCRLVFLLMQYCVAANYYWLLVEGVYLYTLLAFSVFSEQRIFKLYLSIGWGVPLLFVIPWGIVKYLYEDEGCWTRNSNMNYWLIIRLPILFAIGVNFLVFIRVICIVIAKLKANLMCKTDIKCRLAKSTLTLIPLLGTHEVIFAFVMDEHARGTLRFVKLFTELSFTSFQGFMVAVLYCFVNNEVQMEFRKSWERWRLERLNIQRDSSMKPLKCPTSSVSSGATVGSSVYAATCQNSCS
As to the kind of experiment: INS1e assay, cAMP activity at GLP-1R. An outline of the steps:
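It pairs cAMP-d2 acceptor with anti-cAMP cryptate donor, both prepared 1/20 in conjugate/lysis buffer, applied as a two-step protocol.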

Test [4] addresses T4, human glucose-dependent insulinotropic peptide receptor (GIPR) (Homo sapiens, UniProt P48546).
T4 construct: expressed in transfected cells
T4 sequence (P48546 22-466): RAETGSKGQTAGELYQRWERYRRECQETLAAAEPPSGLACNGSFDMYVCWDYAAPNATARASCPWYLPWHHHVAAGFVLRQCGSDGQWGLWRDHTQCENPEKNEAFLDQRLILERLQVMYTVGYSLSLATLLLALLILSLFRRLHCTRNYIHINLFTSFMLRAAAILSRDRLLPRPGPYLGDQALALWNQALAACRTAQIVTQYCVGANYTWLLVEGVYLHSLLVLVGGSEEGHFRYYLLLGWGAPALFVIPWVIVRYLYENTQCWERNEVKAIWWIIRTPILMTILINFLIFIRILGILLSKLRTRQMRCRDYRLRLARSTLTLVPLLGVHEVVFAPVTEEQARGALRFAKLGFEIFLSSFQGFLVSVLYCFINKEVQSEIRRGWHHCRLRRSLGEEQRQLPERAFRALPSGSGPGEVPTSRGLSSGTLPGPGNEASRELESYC
The test can be described thus: cAMP assay, human GIPR cells. The method, boiled down:
as §1

Where two headings read alike, the source gives them in different places. Numbered stars: 1 amine (or outer) side, 2 acyl side, 3 side chain; on linkers, the order of the positions; unused ones are H or OH. Square brackets hold non-standard residues; d marks the D form. Side chains are listed from the residue outwards. Peptide text beside a SMILES is read from it. * marks the point of attachment. γGlu = O=C(O)[C@H](CCC(=O)[*:2])N[*:1]; αMeF = C[C@](N)(Cc1ccccc1)C(=O)O; αMeK = C[C@](N)(CCCCN)C(=O)O; Lauroyl = CCCCCCCCCCCC(=O)*; αMeS = C[C@](N)(CO)C(=O)O; AEEA = NCCOCCOCC(=O)O; Aib = CC(C)(N)C(=O)O

A word on the EC50: it is the concentration needed to bring the measured effect to its halfway point.

T2 sequence (P43220 24-463): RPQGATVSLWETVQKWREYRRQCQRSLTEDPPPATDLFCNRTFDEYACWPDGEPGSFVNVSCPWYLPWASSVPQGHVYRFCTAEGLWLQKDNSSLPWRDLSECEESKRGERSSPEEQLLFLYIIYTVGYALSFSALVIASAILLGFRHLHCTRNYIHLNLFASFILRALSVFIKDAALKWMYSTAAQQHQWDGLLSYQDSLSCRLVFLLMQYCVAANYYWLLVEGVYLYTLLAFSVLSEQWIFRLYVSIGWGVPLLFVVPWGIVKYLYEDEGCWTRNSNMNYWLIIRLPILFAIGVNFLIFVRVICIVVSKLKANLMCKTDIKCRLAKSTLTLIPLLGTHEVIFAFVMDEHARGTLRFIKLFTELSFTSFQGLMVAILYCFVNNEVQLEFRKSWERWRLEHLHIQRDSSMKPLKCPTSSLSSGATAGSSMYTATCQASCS
T1 sequence (P47871 26-477): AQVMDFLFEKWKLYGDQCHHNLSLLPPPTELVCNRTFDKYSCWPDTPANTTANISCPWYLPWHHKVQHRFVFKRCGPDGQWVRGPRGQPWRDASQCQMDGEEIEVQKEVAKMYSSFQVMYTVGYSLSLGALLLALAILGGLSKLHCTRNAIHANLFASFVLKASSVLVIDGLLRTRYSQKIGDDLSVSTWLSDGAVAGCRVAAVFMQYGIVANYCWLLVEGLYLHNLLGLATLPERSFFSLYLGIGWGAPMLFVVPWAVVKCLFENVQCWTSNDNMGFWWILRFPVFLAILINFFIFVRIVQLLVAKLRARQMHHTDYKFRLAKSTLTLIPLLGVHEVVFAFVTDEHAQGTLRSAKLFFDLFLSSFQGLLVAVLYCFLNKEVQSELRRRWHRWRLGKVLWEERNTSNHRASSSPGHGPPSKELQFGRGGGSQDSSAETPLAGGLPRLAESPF

For `CCCCCCCCCCCC(=O)N[C@@H](CCC(=O)NCCOCCOCC(=O)NCCOCCOCC(=O)NCCCC[C@H](NC(=O)[C@H](C)NC(=O)[C@@H](NC(=O)[C@H](Cc1ccccc1)NC(=O)[C@H](CCC(=O)O)NC(=O)[C@](C)(CCCCN)NC(=O)[C@H](C)NC(=O)[C@H](C)NC(=O)[C@H](CCC(=O)O)NC(=O)[C@H](CCCCNC(=O)COCCOCCNC(=O)COCCOCCNC(=O)CC[C@H](NC(=O)CCCCCCCCCCC)C(=O)O)NC(=O)[C@H](CCC(=O)O)NC(=O)[C@H](CCCCNC(=O)COCCOCCNC(=O)COCCOCCNC(=O)CC[C@H](NC(=O)CCCCCCCCCCC)C(=O)O)NC(=O)[C@H](Cc1ccc(O)cc1)NC(=O)[C@H](CO)NC(=O)[C@](C)(CO)NC(=O)[C@@H](NC(=O)[C@H](CC(=O)O)NC(=O)[C@H](CO)NC(=O)[C@@H](NC(=O)[C@](C)(Cc1ccccc1)NC(=O)[C@H](CO)NC(=O)CNC(=O)[C@H](CCC(=O)O)NC(=O)C(C)(C)NC(=O)[C@@H](N)Cc1c[nH]cn1)[C@@H](C)O)C(C)C)[C@@H](C)CC)C(=O)N[C@H](C(=O)N[C@H](C(=O)N[C@@H](CCC(=O)O)C(=O)NCC(=O)NCC(N)=O)C(C)C)C(C)C)C(=O)O` [compound 467] (H-H[Aib]EGS[αMeF]TSDV[αMeS]SYK([AEEA-AEEA-γGlu-Lauroyl])EK([AEEA-AEEA-γGlu-Lauroyl])EAA[αMeK]EFIAK([AEEA-AEEA-γGlu-Lauroyl])VVEGG-NH2; N-terminus assumed), the concentration for a half-maximal effect (EC50) in test [1] (tris-lipidated peptides, second replicate, read-out: Primary assay EC50 Gluc-R (n2)) amounted to 19.8 nM; in test [2] (tris-lipidated peptides, mean of n1 and n2, read-out: Primary assay EC50 Mean pM GLP-1R), 55.4 pM; in test [2] (tris-lipidated peptides, replicate n1, read-out: Primary assay EC50 GLP-1R n1), 49.3 pM; in test [2] (tris-lipidated peptides, replicate n2, read-out: Primary assay EC50 GLP-1R n2), 61.5 pM; in test [3] (tris-lipidated peptides, mean of n1 and n2, read-out: INS1e assay EC50 Mean pM GLP-1R) it was 8920 pM; in test [3] (tris-lipidated peptides, replicate n1, read-out: INS1e assay EC50 GLP-1R n1), 9920 pM. The EC50 is 7910 pM in test [3] (tris-lipidated peptides, replicate n2, read-out: INS1e assay EC50 GLP-1R n2) and 19.8 nM in test [4] (tris-lipidated peptides, second replicate, read-out: Primary assay EC50 GIP-R (n2)).
Regarding `CC[C@H](C)[C@H](NC(=O)[C@H](Cc1ccccc1)NC(=O)[C@H](CCC(=O)O)NC(=O)[C@H](CCCCN)NC(=O)[C@H](C)NC(=O)[C@H](C)NC(=O)[C@H](CCC(N)=O)NC(=O)CNC(=O)[C@H](CCC(=O)O)NC(=O)[C@H](CC(C)C)NC(=O)[C@H](Cc1ccc(O)cc1)NC(=O)[C@H](CO)NC(=O)[C@H](CO)NC(=O)[C@@H](NC(=O)[C@H](CC(=O)O)NC(=O)[C@H](CO)NC(=O)[C@@H](NC(=O)[C@H](Cc1ccccc1)NC(=O)[C@@H](NC(=O)CNC(=O)[C@H](CCC(=O)O)NC(=O)C(C)(C)NC(=O)[C@@H](N)Cc1c[nH]cn1)[C@@H](C)O)[C@@H](C)O)C(C)C)C(=O)N[C@@H](C)C(=O)N[C@@H](Cc1c[nH]c2ccccc12)C(=O)N[C@@H](CC(C)C)C(=O)N[C@H](C(=O)N[C@@H](CCCCN)C(=O)NCC(=O)N[C@@H](CCCNC(=N)N)C(=O)N[C@@H](CCCCNC(=O)COCCOCCNC(=O)COCCOCCNC(=O)CC[C@H](NC(=O)CCCCCCCCCCCCCCCCC(=O)O)C(=O)O)C(N)=O)C(C)C` [compound 6], the EC50 in test [1] (cAMP assay, first determination (n1), read-out: Primary assay EC50 Gluc-R (n1)) is not below 22 nM; in test [1] (cAMP assay, second determination (n2), read-out: Primary assay EC50 Gluc-R (n2)), not below 22 nM; in test [2] (cAMP assay, first determination (n1), read-out: Primary assay EC50 GLP-1R n1) it was 4.8 pM; in test [3] (mono-lipidated peptides, mean of n1 and n2, read-out: INS1e assay EC50 Mean pM GLP-1R), 122 pM; in test [3] (mono-lipidated peptides, replicate n1, read-out: INS1e assay EC50 GLP-1R n1) it was 104 pM; in test [3] (mono-lipidated peptides, replicate n2, read-out: INS1e assay EC50 GLP-1R n2), 139 pM. In addition, the EC50 in test [4] (cAMP assay, first determination (n1), read-out: Primary assay EC50 GIP-R (n1)) is not below 22 nM; in test [4] (cAMP assay, second determination (n2), read-out: Primary assay EC50 GIP-R (n2)) it was not below 22 nM.
